Assay results reported in patent publication US20240307382A1, “MODULATORS OF THE INTEGRATED STRESS PATHWAY” (Calico Life Sciences LLC, priority 2017, published 2024).

Test system: HEK293T cells carrying the ATF4 luciferase reporter
Test: ATF4-Luc assay (ATF4 luciferase reporter, tunicamycin-treated cells)
Format: cell-based
Settings: Homo sapiens, HEK-293T, 1 μg/mL tunicamycin, 7 hours
How it was run: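 A stable HEK293T reporter line was made by placing the full-length human ATF4 5′-UTR ahead of a firefly luciferase sequence without its start methionine, delivered by retroviral transduction and puromycin selection. Cells were seeded at 30,000 per well in polylysine-coated 384-well plates, exposed next day to 1 μg/mL tunicamycin plus compound for 7 hours, and luminescence was read with One Glo.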

Row | Structure (SMILES) | EC50 [nM]
1 | O=C(COc1ccc(Cl)c(Cl)c1)NC12CCC(NC(=O)c3cccc(O)n3)(CC1)C[C@@H]2O [Compound 1025, N-{(3S)-4-[2-(3,4-dichlorophenoxy)acetamido]-3-hydroxybicyclo[2.2.2]octan-1-yl}-6-hydroxypyridine-2-carboxamide] | < 50
2 | O=C(COc1ccc(Cl)c(Cl)c1)NC12CCC(NC(=O)c3ccccn3)(CC1)C[C@@H]2O [Compound 1026, N-{(3S)-4-[2-(3,4-dichlorophenoxy)acetamido]-3-hydroxybicyclo[2.2.2]octan-1-yl}pyridine-2-carboxamide] | < 50
3 | O=C(COc1ccc(Cl)c(Cl)c1)NC12CCC(NC(=O)c3cccc(C(F)(F)F)n3)(CC1)C[C@@H]2O [Compound 1027, N-{(3S)-4-[2-(3,4-dichlorophenoxy)acetamido]-3-hydroxybicyclo[2.2.2]octan-1-yl}-6-(trifluoromethyl)pyridine-2-carboxamide] | < 50
4 | CC(C)Oc1ccc(C(=O)NC23CCC(NC(=O)COc4ccc(Cl)c(Cl)c4)(CC2)[C@@H](O)C3)nc1 [Compound 1028, N-{(3S)-4-[2-(3,4-dichlorophenoxy)acetamido]-3-hydroxybicyclo[2.2.2]octan-1-yl}-5-[(propan-2-yl)oxy]pyridine-2-carboxamide] | 50 to 250
5 | Cc1ccc(C(=O)NC23CCC(NC(=O)COc4ccc(Cl)c(Cl)c4)(CC2)[C@@H](O)C3)nc1 [Compound 1029, N-{(3S)-4-[2-(3,4-dichlorophenoxy)acetamido]-3-hydroxybicyclo[2.2.2]octan-1-yl}-5-methylpyridine-2-carboxamide] | < 50
6 | O=C(COc1ccc(Cl)c(Cl)c1)NC12CCC(NC(=O)c3cc(C(F)(F)F)ccn3)(CC1)C[C@@H]2O [Compound 1030, N-{(3S)-4-[2-(3,4-dichlorophenoxy)acetamido]-3-hydroxybicyclo[2.2.2]octan-1-yl}-4-(trifluoromethyl)pyridine-2-carboxamide] | 50 to 250
7 | O=C(COc1ccc(Cl)c(Cl)c1)NC12CCC(NC(=O)c3ccc(C(F)(F)F)cn3)(CC1)C[C@@H]2O [Compound 1031, N-{(3S)-4-[2-(3,4-dichlorophenoxy)acetamido]-3-hydroxybicyclo[2.2.2]octan-1-yl}-5-(trifluoromethyl)pyridine-2-carboxamide] | < 50
8 | N#Cc1ccnc(C(=O)NC23CCC(NC(=O)COc4ccc(Cl)c(Cl)c4)(CC2)[C@@H](O)C3)c1 [Compound 1032, 4-cyano-N-{(3S)-4-[2-(3,4-dichlorophenoxy)acetamido]-3-hydroxybicyclo[2.2.2]octan-1-yl}pyridine-2-carboxamide] | < 50
9 | N#Cc1ccc(C(=O)NC23CCC(NC(=O)COc4ccc(Cl)c(Cl)c4)(CC2)[C@@H](O)C3)nc1 [Compound 1033, 5-cyano-N-{(3S)-4-[2-(3,4-dichlorophenoxy)acetamido]-3-hydroxybicyclo[2.2.2]octan-1-yl}pyridine-2-carboxamide] | < 50
10 | Cc1nc(C(=O)NC23CCC(NC(=O)COc4ccc(Cl)c(Cl)c4)(CC2)[C@@H](O)C3)ccc1C#N [Compound 1034, 5-cyano-N-{(3S)-4-[2-(3,4-dichlorophenoxy)acetamido]-3-hydroxybicyclo[2.2.2]octan-1-yl}-6-methylpyridine-2-carboxamide] | < 50
11 | O=C(COc1ccc(Cl)c(F)c1)NC12CCC(NC(=O)c3ncc(-c4ccccc4)s3)(CC1)C[C@@H]2O [Compound 1035, N-{(3S)-4-[2-(4-chloro-3-fluorophenoxy)acetamido]-3-hydroxybicyclo[2.2.2]octan-1-yl}-5-phenyl-1,3-thiazole-2-carboxamide] | < 50
12 | O=C(COc1ccc(Cl)c(F)c1)NC12CCC(NC(=O)c3coc(-c4ccccc4)n3)(CC1)C[C@@H]2O [Compound 1036, N-{(3S)-4-[2-(4-chloro-3-fluorophenoxy)acetamido]-3-hydroxybicyclo[2.2.2]octan-1-yl}-2-phenyl-1,3-oxazole-4-carboxamide] | < 50
13 | Cn1nc(C(=O)NC23CCC(NC(=O)COc4ccc(Cl)c(F)c4)(CC2)[C@@H](O)C3)cc1-c1ccccc1 [Compound 1037, N-{(3S)-4-[2-(4-chloro-3-fluorophenoxy)acetamido]-3-hydroxybicyclo[2.2.2]octan-1-yl}-1-methyl-5-phenyl-1H-pyrazole-3-carboxamide] | < 50
14 | O=C(COc1ccc(Cl)c(F)c1)NC12CCC(NC(=O)c3nc(-c4ccccc4)cs3)(CC1)C[C@@H]2O [Compound 1038, N-{(3S)-4-[2-(4-chloro-3-fluorophenoxy)acetamido]-3-hydroxybicyclo[2.2.2]octan-1-yl}-4-phenyl-1,3-thiazole-2-carboxamide] | < 50
15 | O=C(COc1ccc(Cl)c(F)c1)NC12CCC(NC(=O)c3cc(-c4ccccc4)on3)(CC1)C[C@@H]2O [Compound 1039, N-{(3S)-4-[2-(4-chloro-3-fluorophenoxy)acetamido]-3-hydroxybicyclo[2.2.2]octan-1-yl}-5-phenyl-1,2-oxazole-3-carboxamide] | < 50
16 | O=C(COc1ccc(Cl)c(F)c1)NC12CCC(NC(=O)c3csc(-c4ccccc4)n3)(CC1)C[C@@H]2O [Compound 1040, N-{(3S)-4-[2-(4-chloro-3-fluorophenoxy)acetamido]-3-hydroxybicyclo[2.2.2]octan-1-yl}-2-phenyl-1,3-thiazole-4-carboxamide] | < 50
17 | O=C(COc1ccc(Cl)c(Cl)c1)NC12CCC(NC(=O)c3cnc(-c4ccccc4)o3)(CC1)C[C@@H]2O [Compound 1041, N-{(3S)-4-[2-(3,4-dichlorophenoxy)acetamido]-3-hydroxybicyclo[2.2.2]octan-1-yl}-2-phenyl-1,3-oxazole-5-carboxamide] | < 50
18 | O=C(COc1ccc(Cl)c(F)c1)NC12CC(NC(=O)c3cnc(-c4cccnc4)o3)(C1)C2 [Compound 1042, N-{3-[2-(4-chloro-3-fluorophenoxy)acetamido]bicyclo[1.1.1]pentan-1-yl}-2-(pyridin-3-yl)-1,3-oxazole-5-carboxamide] | < 50
19 | O=C(COc1ccc(Cl)c(Cl)c1)NC12CC(NC(=O)c3cnc(C(F)(F)F)o3)(C1)C2 [Compound 1043, N-{3-[2-(3,4-dichlorophenoxy)acetamido]bicyclo[1.1.1]pentan-1-yl}-2-(trifluoromethyl)-1,3-oxazole-5-carboxamide] | 50 to 250
20 | O=C(COc1ccc(Cl)c(F)c1)NC12CC(NC(=O)c3cnc(C(F)(F)F)o3)(C1)C2 [Compound 1044, N-{3-[2-(4-chloro-3-fluorophenoxy)acetamido]bicyclo[1.1.1]pentan-1-yl}-2-(trifluoromethyl)-1,3-oxazole-5-carboxamide] | 50 to 250
21 | O=C(COc1ccc(Cl)c(F)c1)NC12CC(Nc3cncc(C(F)(F)F)c3)(C1)C2 [Compound 1045, 2-(4-chloro-3-fluorophenoxy)-N-(3-{[5-(trifluoromethyl)pyridin-3-yl]amino}bicyclo[1.1.1]pentan-1-yl)acetamide] | > 2000
22 | Cn1nnc(-c2ccc(NC34CC(NC(=O)COc5ccc(Cl)c(F)c5)(C3)C4)cn2)n1 [Compound 1046, 2-(4-chloro-3-fluorophenoxy)-N-(3-{[6-(2-methyl-2H-tetrazol-5-yl)pyridin-3-yl]amino}bicyclo[1.1.1]pentan-1-yl)acetamide] | > 2000
